The values below come from article PMC5957473, “Small Molecule Neuropilin-1 Antagonists Combine Antiangiogenic and Antitumor Activity with Immune Modulation through Reduction of Transforming Growth Factor Beta (TGFβ) Production in Regulatory T-Cells” (Journal of Medicinal Chemistry, 2018).

The target in one data set is T1, NRP1-b1 (Homo sapiens, UniProt O14786).
T1 construct: His6 (TEV protease-cleavable) (N); made in house; host or cells: Escherichia coli Rosetta Gami 2 (DE3) pLysS
T1 sequence (O14786 273-427): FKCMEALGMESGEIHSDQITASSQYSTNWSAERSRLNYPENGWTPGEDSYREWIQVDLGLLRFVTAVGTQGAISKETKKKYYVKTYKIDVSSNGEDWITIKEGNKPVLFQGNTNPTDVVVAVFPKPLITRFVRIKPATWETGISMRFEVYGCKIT
The data set can be described thus: SPR equilibrium binding assay (Biacore 4000), immobilised NRP1-b1. To be noted: equilibrium (steady-state) binding, 25 °C, average ± SD of high and low density surfaces. The procedure: All the compounds were evaluated using an SPR binding assay (Biacore) where recombinant NRP1-b1b2 protein was immobilized on a dextran coated chip.[23] Selected compounds were then evaluated in competitive binding assay systems using biotinylated VEGF. […] This encouraging result prompted us to conduct a more focused structure–activity study around the 10a structure.
Surface plasmon resonance experiments were performed using a Biacore 4000 instrument at 25 °C. Sensor chips, buffer stock solutions, and immobilization reagents were from GE Healthcare. Recombinant human NRP1-b1 was as above. Other reagents were obtained from Sigma. Immobilization: PBS (containing 0.05% surfactant P20) was used as the running buffer. The four flow cells were treated in the same way to optimize throughput. In summary, using a CM5 chip spots 1 and 2 were activated with the coupling reagents EDC and NHS for 10 min. NRP1-b1 at a concentration of 20 μg/mL in 10 mM sodium acetate pH 5 was injected onto the surface for 10 and 5 min in spots 1 and 2, respectively, to generate surfaces with high and low density. The immobilization levels ranged from 2302 to 1823 RU on spot 1 and from 948 to 1112 RU in spot 2. The unmodified spot 3 was used as a reference. […] Dose–responses were obtained using a 2-fold sample dilution from 16 μM to 31 nM, using an injection time of 60 s. Surface regeneration between injections was not necessary, but a wash step with 1 M NaCl was included after injection of the highest concentration sample for each compound. Data processing: Binding curves were corrected for variations in DMSO concentration and normalized by molecular weight. Binding results to high and low-density surfaces were processed independently and the average ± SD is presented. KDs reported are derived from steady-state binding responses and therefore correspond to the equilibrium binding affinity of the compounds.
(In general: SPR reads the build-up and loss of mass on a sensor chip optically.)

Data set [1] in a line: IV pharmacokinetics in mice. Particulars: for half-life: 2 mg/kg. The format is in vivo. On the procedure:
To test compound drug-like properties, selected compounds with low IC50 were further tested for pharmacokinetics (PK) profile. First, 6–8 week-old BABL/c female mice were used, then 2 mg/kg of compounds was formulated in 7.5% DMSO and 92.5% solution and intravenously dosed from the tail vein as a bolus. Blood samples were collected by cardiac puncture at 5, 15, 30, 60, 180, and 240 min post dosing. Plasma samples were prepared by centrifugation at 7000 rpm for 5 min, and supernatants were collected, immediately snap-frozen on dry ice, and stored at −20C. Samples were analyzed by liquid chromatography–tandem mass spectrometry using electrospray ionization and data was analyzed by WinNonlin software.

The subject of the next data set is NRP1. Details: method as in PMID 20151671. Particulars: read-out: IC50, inhibition of bt-VEGF-A binding to NRP1; cited from earlier work.
Data set [2] deals with HUVEC cells. Details: method as in PMID 20151671. Particulars: 100 μM in combination with VEGF-A; cited from earlier work.
In a further data set the test system is Nrp1+ Tregs. The data set can be described thus: TGFβ production by Nrp1+ Tregs exposed to glioma conditioned media (ELISA). To be noted: 500 nM pretreatment 2 h, GCM 12 h. It counts as cell-based, mice. In general terms: An ELISA detects its analyte on a solid surface through an enzyme-linked reagent.
Data set [3] concerns HUVEC cells. The data set can be described thus: Transwell migration (chemotaxis) of HUVEC cells toward VEGF-A. The format is cell-based, human. To be noted: 30 μM, no VEGF-A.
The subject of data set [4] is HUVEC cells. In words: Wound healing scratch assay. Particulars: 30 μM + VEGF-A 25 ng/mL, 1% EGM. The format is cell-based, human.
A further data set addresses T2, NRP2 (Homo sapiens, UniProt O60462).
T2 sequence (O60462 23-802 limits assumed): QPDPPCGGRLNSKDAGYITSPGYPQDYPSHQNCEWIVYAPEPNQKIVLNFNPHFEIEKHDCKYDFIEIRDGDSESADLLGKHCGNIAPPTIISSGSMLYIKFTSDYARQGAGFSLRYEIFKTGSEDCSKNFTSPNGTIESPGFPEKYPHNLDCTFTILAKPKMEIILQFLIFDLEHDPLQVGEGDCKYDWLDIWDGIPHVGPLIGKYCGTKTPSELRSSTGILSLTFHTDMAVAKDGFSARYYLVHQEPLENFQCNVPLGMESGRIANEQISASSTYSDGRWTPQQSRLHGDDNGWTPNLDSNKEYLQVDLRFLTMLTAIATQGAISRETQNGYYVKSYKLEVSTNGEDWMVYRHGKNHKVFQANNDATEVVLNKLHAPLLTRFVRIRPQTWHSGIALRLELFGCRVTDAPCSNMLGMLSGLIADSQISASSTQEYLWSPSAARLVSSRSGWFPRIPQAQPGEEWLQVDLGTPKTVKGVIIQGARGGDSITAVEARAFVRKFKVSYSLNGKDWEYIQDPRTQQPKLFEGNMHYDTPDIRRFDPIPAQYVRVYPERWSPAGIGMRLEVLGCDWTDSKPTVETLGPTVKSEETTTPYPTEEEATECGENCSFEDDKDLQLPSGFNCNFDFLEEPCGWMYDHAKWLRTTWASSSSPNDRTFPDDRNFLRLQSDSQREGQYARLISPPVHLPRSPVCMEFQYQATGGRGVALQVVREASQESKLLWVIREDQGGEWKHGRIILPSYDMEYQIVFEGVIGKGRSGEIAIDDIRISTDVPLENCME
In words: SPR single-cycle binding to NRP2 (Biacore T200). To be noted: 62.5 – 1000 nM, NRP2 His tagged and NRP2-Fc chimera.

Data set [5] deals with A375P (malignant melanoma) cells. In words: 3D spheroid invasion assay. The format is cell-based.
In a further data set the target is T3, DU145/cells.Ad.NRP1 (Homo sapiens, UniProt O14786).
T3 construct: expressed in transfected cells; host or cells: DU145 prostate cancer cells (ATCC) infected with adenovirus
The data set can be described thus: Cell-based competition binding with bt-VEGF in DU145 cells infected with adenovirus expressing WT NRP1. To be noted: HS value in brackets beside IC50.

Where [6] appears, read: female, BABL/c (so in the source); BALB/c), mouse, plasma, IV bolus 2 mg/kg.

T3 sequence (O14786 22-923): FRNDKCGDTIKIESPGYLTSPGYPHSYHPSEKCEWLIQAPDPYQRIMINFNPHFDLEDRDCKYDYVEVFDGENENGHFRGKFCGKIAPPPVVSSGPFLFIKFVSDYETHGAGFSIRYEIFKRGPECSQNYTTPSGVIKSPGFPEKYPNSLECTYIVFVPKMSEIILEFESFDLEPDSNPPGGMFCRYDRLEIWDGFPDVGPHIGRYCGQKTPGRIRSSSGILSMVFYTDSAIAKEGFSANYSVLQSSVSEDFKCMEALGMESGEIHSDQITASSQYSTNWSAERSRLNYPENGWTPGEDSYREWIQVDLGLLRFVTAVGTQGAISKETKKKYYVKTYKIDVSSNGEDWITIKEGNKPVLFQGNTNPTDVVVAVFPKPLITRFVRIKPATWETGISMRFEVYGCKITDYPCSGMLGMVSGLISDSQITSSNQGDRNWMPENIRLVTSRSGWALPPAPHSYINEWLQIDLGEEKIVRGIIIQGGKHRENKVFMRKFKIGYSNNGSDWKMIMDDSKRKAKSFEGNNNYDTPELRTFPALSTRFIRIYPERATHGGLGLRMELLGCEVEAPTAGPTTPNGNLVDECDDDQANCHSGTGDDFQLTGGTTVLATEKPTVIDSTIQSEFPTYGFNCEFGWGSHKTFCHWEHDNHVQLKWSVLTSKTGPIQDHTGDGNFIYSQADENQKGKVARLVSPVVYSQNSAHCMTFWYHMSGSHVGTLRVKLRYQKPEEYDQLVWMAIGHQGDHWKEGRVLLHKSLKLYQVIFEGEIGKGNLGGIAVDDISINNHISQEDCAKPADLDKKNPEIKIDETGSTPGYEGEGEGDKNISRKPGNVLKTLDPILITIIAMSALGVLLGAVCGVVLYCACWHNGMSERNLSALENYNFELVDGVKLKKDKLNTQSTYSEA

`N=C(N)NCCC[C@H](NC(=O)c1sccc1NS(=O)(=O)c1cc(-c2ccccc2CNCc2ncc[nH]2)cc2c1OCC2)C(=O)O` [9b, N2-(3-((5-(2-((((1H-Imidazol-2-yl)methyl)amino)methyl)phenyl)-2,3-dihydrobenzofuran)-7-sulfonamido)thiophene-2-carbonyl)-Nω-((2,2,4,6,7-pentamethyl-2,3-dihydrobenzofuran-5-yl)sulfonyl)-L-arginine] registered a Kd on NRP1-b1 of 1.77 ± 0.1 µM.
Still for that read-out and setting: then `N=C(N)NCCC[C@H](NC(=O)c1sccc1NS(=O)(=O)c1cc(-c2ccccc2CNCc2cc[nH]n2)cc2c1OCC2)C(=O)O` [9c, N2-(3-((5-(2-((((1H-Pyrazol-3-yl)methyl)amino)methyl)phenyl)-2,3-dihydrobenzofuran)-7-sulfonamido)thiophene-2-carbonyl)-Nω-((2,2,4,6,7-pentamethyl-2,3-dihydrobenzofuran-5-yl)sulfonyl)-L-arginine], with 2.1 ± 0.04 µM; and `N=C(N)NCCC[C@H](NC(=O)c1sccc1NS(=O)(=O)c1cc(-c2ccccc2CNCc2cn[nH]c2)cc2c1OCC2)C(=O)O` [9d, N2-(3-((5-(2-((((1H-Pyrazol-4-yl)methyl)amino)methyl)phenyl)-2,3-dihydrobenzofuran)-7-sulfonamido)thiophene-2-carbonyl)-Nω-((2,2,4,6,7-pentamethyl-2,3-dihydrobenzofuran-5-yl)sulfonyl)-L-arginine], with 2.14 ± 0.07 µM; and `N=C(N)NCCC[C@H](NC(=O)c1sccc1NS(=O)(=O)c1cc(-c2ccccc2CNCc2ccccn2)cc2c1OCC2)C(=O)O` [9e, Nω-((2,2,4,6,7-Pentamethyl-2,3-dihydrobenzofuran-5-yl)sulfonyl)-N2-(3-((5-(2-(((pyridin-2-ylmethyl)amino)methyl)phenyl)-2,3-dihydrobenzofuran)-7-sulfonamido)thiophene-2-carbonyl)-L-arginine], with 0.68 ± 0.21 µM.
On the same count and under the same terms, as for `N=C(N)NCCC[C@H](NC(=O)c1sccc1NS(=O)(=O)c1cc(-c2cccc(CNCc3ncc[nH]3)c2)cc2c1OCC2)C(=O)O` [10b, N2-(3-((5-(3-((((1H-Imidazol-2-yl)methyl)amino)methyl)phenyl)-2,3-dihydrobenzofuran)-7-sulfonamido)thiophene-2-carbonyl)-Nω-((2,2,4,6,7-pentamethyl-2,3-dihydrobenzofuran-5-yl)sulfonyl)-L-arginine], the figure is 0.84 ± 0.16 µM; as for `N=C(N)NCCC[C@H](NC(=O)c1sccc1NS(=O)(=O)c1cc(-c2cccc(CNCc3cc[nH]n3)c2)cc2c1OCC2)C(=O)O` [10c, N2-(3-((5-(3-((((1H-Pyrazol-3-yl)methyl)amino)methyl)phenyl)-2,3-dihydrobenzofuran)-7-sulfonamido)thiophene-2-carbonyl)-Nω-((2,2,4,6,7-pentamethyl-2,3-dihydrobenzofuran-5-yl)sulfonyl)-L-arginine], 1.45 ± 0.07 µM.
For `N=C(N)NCCC[C@H](NC(=O)c1sccc1NS(=O)(=O)c1cc(-c2cccc(CNCc3cn[nH]c3)c2)cc2c1OCC2)C(=O)O` [10d, N2-(3-((5-(3-((((1H-Pyrazol-4-yl)methyl)amino)methyl)phenyl)-2,3-dihydrobenzofuran)-7-sulfonamido)thiophene-2-carbonyl)-Nω-((2,2,4,6,7-pentamethyl-2,3-dihydrobenzofuran-5-yl)sulfonyl)-L-arginine], the t1/2 in data set [1] (IV bolus 2 mg/kg) amounted to 1.20 h. The same compound had a half-life in [1] (female, BABL/c (so in the source); BALB/c), mouse, plasma, IV) of 1.2 h. In addition, in [1] (setting [6]), the AUC(0-inf) is 3.14 µg·h/mL, the Cmax was 2.62 µg/mL, the Tmax turned out to be 4.8 min and the Vd turned out to be 1.1 L/kg. Further, the clearance in data set [1] (setting [6]) was determined as 1.1 L/h/kg. For the same compound, at NRP1-b1, the affinity, expressed as Kd, was 1.43 ± 0.11 µM.
Take `N=C(N)NCCC[C@H](NC(=O)c1sccc1NS(=O)(=O)c1cc(-c2cccc(CNCc3ccccn3)c2)cc2c1OCC2)C(=O)O` [10e, Nω-((2,2,4,6,7-Pentamethyl-2,3-dihydrobenzofuran-5-yl)sulfonyl)-N2-(3-((5-(3-(((pyridin-2-ylmethyl)amino)methyl)phenyl)-2,3-dihydrobenzofuran)-7-sulfonamido)thiophene-2-carbonyl)-L-arginine]: the affinity at NRP1-b1, expressed as Kd, was 0.41 ± 0.09 µM.
In the case of `N=C(N)NCCC[C@H](NC(=O)c1sccc1NS(=O)(=O)c1cccc2nsnc12)C(=O)O` [EG00229, (S)-2-(3-(benzo[c][1,2,5]thiadiazole-4-sulfonamido)thiophene-2-carboxamido)-5-((diaminomethylene)amino)pentanoic acid], the IC50 with NRP1 was 8 µM. Also, in the data set on HUVEC cells [2], the “reduction of migration (previously reported)” value is reported as “≈ 34%”.
Take `N=C(N)NCCC[C@H](NC(=O)c1sccc1NS(=O)(=O)c1cc(-c2ccc(CN)cc2)cc2c1OCC2)C(=O)O` [compound 1, (3-((5-(4-(Aminomethyl)phenyl)-2,3-dihydrobenzofuran)-7-sulfonamido)thiophene-2-carbonyl)-L-arginine]: in data set [1] (female, BABL/c, mouse, plasma, IV), the half-life is 4.29 h. In [1] (female, BABL/c, mouse, plasma, IV bolus 2 mg/kg), this compound had a clearance of 0.84 L/h/kg. In addition, the “effect on GCM-induced production of TGFβ” value with Nrp1+ Tregs is on record as “inhibited the GCM-induced production of TGFβ”. In addition, the “effect on HUVEC migration, compound alone” value in the data set with HUVEC cells [3] is “did not influence the migratory ability of these cells”. The “effect on VEGF-induced wound closure” value with HUVEC cells [4] is “can delay the VEGF-induced wound closure”. For the same compound, the “binding to NRP2 by SPR” value at NRP2 was “no detectable NRP2 binding”. In addition, the “effect on A375P spheroid invasion induced by VEGF-A” value in [5] (30 μM + VEGF-A 25 ng/mL, 7 days) is “significantly inhibited invasion induced by VEGF-A”. Besides, in [5] (30 μM, compared to DMSO control), the “effect on A375P radial invasion, compound alone” value is listed as “no significant effect on radial invasion”. In addition, the “DU145/cells.Ad.NRP1, (HS)” value at DU145/cells.Ad.NRP1 is 0.9.
As to `CN(C)Cc1cccc(-c2cc3c(c(S(=O)(=O)Nc4ccsc4C(=O)N[C@@H](CCCNC(=N)N)C(=O)O)c2)OCC3)c1` [compound 13, (3-((5-(3-((Dimethylamino)methyl)phenyl)-2,3-dihydrobenzofuran)-7-sulfonamido)thiophene-2-carbonyl)-L-arginine], the “clearance and AUC compared with 1” value in data set [1] (IV, in words) was “notably higher clearance and lower AUC than 1”.

A word on the Kd: it is the equilibrium constant for the complex coming apart. A lower Kd goes with higher affinity. As usually defined, the half-life is how long it takes for the measured level to halve. The AUC(0-inf) is the area under the concentration-time curve extrapolated to infinity. The low end stands for low exposure, the high end for high exposure. For orientation: Cmax means the peak of the concentration-time curve. In general, Tmax refers to the time from dosing to the highest level. One may read the Vd as a proportionality between amount in the body and measured concentration, not a real space. Lower therefore signals confinement near the circulation. One may read the clearance as a measure of how efficiently the substance is removed, as volume per time. In general, IC50 refers to the midpoint of a concentration-inhibition curve.
